From PMC10978946, “Coumarin linked to 2-phenylbenzimidazole derivatives as potent α-glucosidase inhibitors” (Scientific Reports, 2024)
Like-named read-outs stand apart in the source and are kept apart here.

Tests used:
[1] = target: T1, α-Glucosidase (Saccharomyces cerevisiae, EC3.2.1.20) (Saccharomyces cerevisiae, UniProt P53341); experiment: biochemical; assay type: biochemical
T1 construct: purchased Sigma-Aldrich
Description: α-Glucosidase (Saccharomyces cerevisiae, EC3.2.1.20, 20 U/mg) and the substrate, […] (p-NPG) were purchased from Sigma-Aldrich, and the assay was performed exactly according to our previous report[34],[35].

α-glucosidase [2] = target: T2, α-glucosidase (Saccharomyces cerevisiae, UniProt P53341); experiment: Enzyme kinetic studies (Lineweaver–Burk plot, secondary plot); assay type: biochemical
T2 construct: purchased Sigma-Aldrich
T2 sequence (P53341 whole entry): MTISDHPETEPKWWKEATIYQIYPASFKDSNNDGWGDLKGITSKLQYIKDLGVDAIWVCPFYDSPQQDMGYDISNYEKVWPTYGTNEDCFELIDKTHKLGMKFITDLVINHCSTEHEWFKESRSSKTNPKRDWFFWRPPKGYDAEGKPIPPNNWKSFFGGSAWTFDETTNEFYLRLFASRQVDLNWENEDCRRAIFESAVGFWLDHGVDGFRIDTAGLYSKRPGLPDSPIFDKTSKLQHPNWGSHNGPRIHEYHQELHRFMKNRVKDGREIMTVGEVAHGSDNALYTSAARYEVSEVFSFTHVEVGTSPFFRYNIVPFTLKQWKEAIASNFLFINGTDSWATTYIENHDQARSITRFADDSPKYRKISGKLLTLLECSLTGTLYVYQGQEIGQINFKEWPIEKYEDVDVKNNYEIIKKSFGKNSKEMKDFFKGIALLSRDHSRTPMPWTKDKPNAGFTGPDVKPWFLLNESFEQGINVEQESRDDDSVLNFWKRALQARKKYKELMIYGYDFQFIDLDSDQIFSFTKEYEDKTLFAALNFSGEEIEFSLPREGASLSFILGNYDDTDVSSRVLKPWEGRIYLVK
Description: A Lineweaver–Burk plot was generated to identify the type of inhibition and Km value was determined from the plot between the reciprocal of the substrate concentration (1/[S]) and reciprocal of enzyme rate (1/V) over various inhibitor concentrations. Experimental Ki value was constructed by secondary plots of the inhibitor concentration [I] versus Km.

α-glucosidase [3] = conditions: cited from earlier work; for fold more potent than acarbose: literature coumarin derivatives versus acarbose
yeast α-glucosidase = target: yeast α-glucosidase; design: method as in PMID 26637946; conditions: compound D and its acarbose control; cited from earlier work
[4] = supplement sheet IC50 values, unrounded, unit inferred

T1 sequence (P53341 whole entry): as above

In the case of `O=C(Oc1ccc2ccc(=O)oc2c1)c1ccc2[nH]c(-c3ccccc3O)nc2c1` [Compound 5k, 2-Oxo-2H-chromen-7-yl 2-(2-hydroxyphenyl)-1H-benzo[d]imidazole-5-carboxylate], the melting point is reported as 187 to 189 °C, the IC50 [1] is reported as 10.8 ± 0.1 µM and the “fold more potent than compound 5d” value ([1]; IC50 comparison 5k versus 5d) is reported as “twofold”. The inhibition pattern (α-glucosidase [2]; Lineweaver–Burk plot, Km increased, Vmax unchanged) was “competitive inhibition pattern” and the Ki (α-glucosidase [2]; from plot of Km versus inhibitor concentration, substrate p-nitrophenyl α-D-glucopyranoside 1–16 mM, read-out: inhibition constant (Ki)) was 10.4 µM.
Molecule `O=C(Oc1ccc2ccc(=O)oc2c1)c1ccc2[nH]c(-c3ccccc3Cl)nc2c1` [Compound 5e, 2-Oxo-2H-chromen-7-yl 2-(2-chlorophenyl)-1H-benzo[d]imidazole-5-carboxylate] has a melting point of 189 to 191 °C, an IC50 [1] of 34.7 ± 0.7 µM and an IC50 [1, 4] of 34.7 µM.
In the case of `O=C(Oc1ccc2ccc(=O)oc2c1)c1ccc2[nH]c(-c3ccccc3)nc2c1` [Compound 5a, 2-Oxo-2H-chromen-7-yl 2-phenyl-1H-benzo[d]imidazole-5-carboxylate], the melting point is reported as 180 to 183 °C, the IC50 [1] is reported as 50 ± 0.8 µM and the “fold better than acarbose” value ([1]; ratio of IC50 values versus acarbose) is reported as “approximately 15 fold”. It also gave an IC50 [1, 4] of 50 µM.
For `Cc1ccc(-c2nc3cc(C(=O)Oc4ccc5ccc(=O)oc5c4)ccc3[nH]2)cc1` [Compound 5i, 2-Oxo-2H-chromen-7-yl 2-(p-tolyl)-1H-benzo[d]imidazole-5-carboxylate], the melting point was 193 to 195 °C, the IC50 [1] was 44.9 µM and the IC50 [1, 4] was 44.9 µM.
For `O=C(Oc1ccc2ccc(=O)oc2c1)c1ccc2[nH]c(-c3ccc(Cl)cc3)nc2c1` [Compound 5c, 2-Oxo-2H-chromen-7-yl 2-(4-chlorophenyl)-1H-benzo[d]imidazole-5-carboxylate], the melting point was 180 to 182 °C, the IC50 [1] was 26.9 ± 1.1 µM and the IC50 [1, 4] was 26.9 µM.
In the case of `Cc1c(-c2nc3cc(C(=O)Oc4ccc5ccc(=O)oc5c4)ccc3[nH]2)cccc1[N+](=O)[O-]` [Compound 5l, 2-Oxo-2H-chromen-7-yl 2-(2-methyl-3-nitrophenyl)-1H-benzo[d]imidazole-5-carboxylate], the melting point is reported as 194 to 196 °C, the IC50 [1] is reported as 119.5 ± 0.1 µM and the “fold decrease of inhibitory activity versus compound 5m” value ([1]; 3-chloro replaced with 3-nitro) is reported as “three folds”. For the same molecule, the IC50 [1, 4] was 119 µM.
For `C/C(=N\OC(=O)/C=C/c1ccc(Br)cc1)c1cc2ccc(Br)cc2oc1=O` [Compound C], the IC50 (α-glucosidase [3]; Fig. 1, compound C and its acarbose control) is given as 2.54 µM and the “fold more potent than acarbose” value (α-glucosidase [3]) is given as 252 fold.
For `O=C(N/N=C/c1ccccc1O)c1cc2ccccc2oc1=O` [Compound A], the IC50 (α-glucosidase [3]; Fig. 1, compound A and its acarbose control) is given as 1.1 µM and the “fold more potent than acarbose” value (α-glucosidase [3]) is given as 35.8 fold.
`O=C(Oc1ccc2ccc(=O)oc2c1)c1ccc2[nH]c(-c3ccc(F)cc3)nc2c1` [Compound 5b, 2-Oxo-2H-chromen-7-yl 2-(4-fluorophenyl)-1H-benzo[d]imidazole-5-carboxylate] showed a melting point of 195 to 197 °C, an IC50 [1] of 30.6 ± 0.4 µM and an IC50 [1, 4] of 30.6 µM.
With `O=C(Oc1ccc2ccc(=O)oc2c1)c1ccc2[nH]c(-c3ccc(F)cc3F)nc2c1` [Compound 5g, 2-Oxo-2H-chromen-7-yl 2-(2,4-difluorophenyl)-1H-benzo[d]imidazole-5-carboxylate] the melting point was 201 to 203 °C, the IC50 [1] was 46.7 ± 0.2 µM and the IC50 [1, 4] was 46.7 µM.
For `COc1cc(-c2nc3ccccc3[nH]2)ccc1OCC(=O)Nc1ccc(F)cc1` [Compound F], the IC50 (α-glucosidase [3]; Fig. 1, compound F and its acarbose control) is listed as 99.6 µM.
In the case of `Cc1ccc(/C=C/C(=O)Oc2cc(=O)oc3ccccc23)cc1` [Compound B], the IC50 (α-glucosidase [3]; Fig. 1, compound B and its ursolic acid control) is listed as 13 µM.
`COc1ccc(-c2nc3cc(C(=O)Oc4ccc5ccc(=O)oc5c4)ccc3[nH]2)cc1` [Compound 5j, 2-Oxo-2H-chromen-7-yl 2-(4-methoxyphenyl)-1H-benzo[d]imidazole-5-carboxylate] showed a melting point of 169 to 171 °C and an IC50 [1] of 40.3 ± 0.5 µM.
For `Cc1c(Cl)cccc1-c1nc2cc(C(=O)Oc3ccc4ccc(=O)oc4c3)ccc2[nH]1` [Compound 5m, 2-Oxo-2H-chromen-7-yl 2-(3-chloro-2-methylphenyl)-1H-benzo[d]imidazole-5-carboxylate], the melting point was 182 to 184 °C, the IC50 [1] was 40.9 ± 1.1 µM and the IC50 [1, 4] was 40.9 µM.
In the case of `Cc1cc2nc(-c3ccc(C(=O)N/N=C/c4cc(O)c(O)c(O)c4)cc3)[nH]c2cc1C` [Compound D], the IC50 (yeast α-glucosidase) is given as 8.4 µM.
With `O=C(Oc1ccc2ccc(=O)oc2c1)c1ccc2[nH]c(-c3ccc(Br)cc3)nc2c1` [Compound 5d, 2-Oxo-2H-chromen-7-yl 2-(4-bromophenyl)-1H-benzo[d]imidazole-5-carboxylate] the melting point was 179 to 181 °C, the IC50 [1] was 22.9 ± 0.2 µM and the IC50 [1, 4] was 23 µM.
`O=C(Oc1ccc2ccc(=O)oc2c1)c1ccc2[nH]c(-c3cccc(Cl)c3Cl)nc2c1` [Compound 5h, 2-Oxo-2H-chromen-7-yl 2-(2,3-dichlorophenyl)-1H-benzo[d]imidazole-5-carboxylate] gave a melting point of 182 to 184 °C, an IC50 [1] of 45.2 ± 0.2 µM and an IC50 [1, 4] of 45.3 µM.
In the case of `COc1ccc(-c2nc3cc(C(=O)N/N=C/c4cccs4)ccc3[nH]2)cc1` [Compound E], the IC50 (α-glucosidase [3]; Fig. 1, compound E and its acarbose control) is given as 60.1 µM.
Molecule `O=C(Oc1ccc2ccc(=O)oc2c1)c1ccc2[nH]c(-c3cccc(Br)c3)nc2c1` [Compound 5f, 2-Oxo-2H-chromen-7-yl 2-(3-bromophenyl)-1H-benzo[d]imidazole-5-carboxylate] has a melting point of 172 to 174 °C, an IC50 [1] of 25.2 ± 0.5 µM and an IC50 [1, 4] of 25.2 µM.
